Data set [1] can be described thus: Solubility of compound in 0.01 N HCL. The format is physicochemical. The settings on record: 0.01 N HCl; read-out: solubility.
The target of data set [2] is T1, Serine/threonine-protein kinase mTOR (Homo sapiens, UniProt P42345).
For data set [3], the target named is T1, Serine/threonine-protein kinase mTOR. This is another data set of the same source.
Data set [4] in a line: AUC in rat at 50 mg/kg, po. Details: dose 50 mg/kg, route oral. The conditions noted are these: plasma. The data set is classed as ADME, organism-based.
For data set [5], the target named is Phosphatidylinositol 4,5-bisphosphate 3-kinase catalytic subunit alpha isoform (Homo sapiens, UniProt P42336).
Chain of Phosphatidylinositol 4,5-bisphosphate 3-kinase catalytic subunit alpha isoform (P42336 whole entry, canonical isoform): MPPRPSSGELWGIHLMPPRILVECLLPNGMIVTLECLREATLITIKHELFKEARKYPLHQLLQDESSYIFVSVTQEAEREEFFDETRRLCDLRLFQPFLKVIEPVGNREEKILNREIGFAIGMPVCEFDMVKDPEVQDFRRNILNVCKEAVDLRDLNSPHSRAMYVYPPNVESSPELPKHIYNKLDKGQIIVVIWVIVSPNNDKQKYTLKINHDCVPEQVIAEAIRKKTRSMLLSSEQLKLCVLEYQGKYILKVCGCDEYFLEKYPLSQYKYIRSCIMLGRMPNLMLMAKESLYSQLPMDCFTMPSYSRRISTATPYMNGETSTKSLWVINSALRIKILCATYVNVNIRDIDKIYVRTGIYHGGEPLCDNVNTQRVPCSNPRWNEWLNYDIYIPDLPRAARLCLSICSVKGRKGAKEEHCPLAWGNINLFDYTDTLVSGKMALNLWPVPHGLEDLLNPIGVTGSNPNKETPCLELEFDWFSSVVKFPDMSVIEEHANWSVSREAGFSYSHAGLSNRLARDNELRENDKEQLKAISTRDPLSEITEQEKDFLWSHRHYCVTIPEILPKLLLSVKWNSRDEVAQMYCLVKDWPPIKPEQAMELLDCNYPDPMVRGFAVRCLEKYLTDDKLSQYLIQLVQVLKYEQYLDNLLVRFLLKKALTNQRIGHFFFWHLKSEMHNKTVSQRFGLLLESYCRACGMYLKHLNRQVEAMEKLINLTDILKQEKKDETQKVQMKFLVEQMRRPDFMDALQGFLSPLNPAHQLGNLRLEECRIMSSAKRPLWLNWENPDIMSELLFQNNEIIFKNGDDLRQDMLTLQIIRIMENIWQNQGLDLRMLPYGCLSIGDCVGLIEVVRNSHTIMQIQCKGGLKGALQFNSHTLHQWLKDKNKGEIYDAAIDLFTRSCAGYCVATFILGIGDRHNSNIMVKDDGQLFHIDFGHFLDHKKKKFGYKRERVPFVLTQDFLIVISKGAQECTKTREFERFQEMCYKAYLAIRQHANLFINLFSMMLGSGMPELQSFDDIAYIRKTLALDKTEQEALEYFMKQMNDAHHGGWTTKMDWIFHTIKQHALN
Data set [6] has as its target Phosphatidylinositol 4,5-bisphosphate 3-kinase catalytic subunit gamma isoform (Homo sapiens, UniProt P48736).
Data set [7] has as its target Phosphatidylinositol 4,5-bisphosphate 3-kinase catalytic subunit beta isoform (Homo sapiens, UniProt P42338).
Data set [8] addresses Serine/threonine-protein kinase mTOR (Rattus norvegicus) (UniProt P42346). As to the kind of experiment: Inhibition of HGF induced mTOR activation in rat liver assessed as inhibition of AKT phosphorylation at S473 at 100 mg/kg, ip 6 hrs prior to HGF stimulation by MSD analysis. The data set is classed as organism-based. Details: dose 100 mg/kg.
For data set [9], the system named is Rattus norvegicus. Put plainly: Inhibition of HGF induced mTOR activation in ip dosed rat liver assessed as inhibition of AKT phosphorylation at S473 administered 6 hrs prior to HGF stimulation by MSD analysis. The data set is classed as functional, organism-based.
The nature of data set [10]: Plasma protein binding in Sprague-Dawley rat at 1 mg/kg, iv and 2 mg/kg, po. The data set is classed as ADME, organism-based. The conditions noted are these: read-out: PPB (converted).
Data set [11] deals with T1, Serine/threonine-protein kinase mTOR. This is another data set of the same source.
Description: Inhibition of mTOR in human U-87 cells assessed as inhibition of phosphorylation of AKT at S473
Data set [12] can be described thus: Clearance in Sprague-Dawley rat at 1 mg/kg, iv and 2 mg/kg, po. The format is ADME, organism-based. The settings on record: in vivo.
Data set [13] is described as follows: Volume of distribution at steady state in Sprague-Dawley rat at 1 mg/kg, iv and 2 mg/kg, po. The data set is classed as ADME, organism-based. The settings on record: in vivo, read-out: Vdss.
In data set [14] the target is Serine/threonine-protein kinase mTOR (Rattus norvegicus) (UniProt P42346). Put plainly: Inhibition of HGF induced mTOR activation in rat liver assessed as inhibition of AKT phosphorylation at S473 at 30 mg/kg, ip 6 hrs prior to HGF stimulation by MSD analysis. The data set is classed as organism-based. Details: dose 30 mg/kg; scale not given: the % may be the effect or the level left.

Data set [15] in a line: Half life in Sprague-Dawley rat at 1 mg/kg, iv. The data set is classed as ADME, organism-based. Details: dose 1 mg/kg, route intravenous. The conditions noted are these: in vivo.
In data set [16] the target is T2, Phosphatidylinositol 4,5-bisphosphate 3-kinase catalytic subunit delta isoform (Homo sapiens, UniProt O00329).
T2 sequence (O00329 whole entry): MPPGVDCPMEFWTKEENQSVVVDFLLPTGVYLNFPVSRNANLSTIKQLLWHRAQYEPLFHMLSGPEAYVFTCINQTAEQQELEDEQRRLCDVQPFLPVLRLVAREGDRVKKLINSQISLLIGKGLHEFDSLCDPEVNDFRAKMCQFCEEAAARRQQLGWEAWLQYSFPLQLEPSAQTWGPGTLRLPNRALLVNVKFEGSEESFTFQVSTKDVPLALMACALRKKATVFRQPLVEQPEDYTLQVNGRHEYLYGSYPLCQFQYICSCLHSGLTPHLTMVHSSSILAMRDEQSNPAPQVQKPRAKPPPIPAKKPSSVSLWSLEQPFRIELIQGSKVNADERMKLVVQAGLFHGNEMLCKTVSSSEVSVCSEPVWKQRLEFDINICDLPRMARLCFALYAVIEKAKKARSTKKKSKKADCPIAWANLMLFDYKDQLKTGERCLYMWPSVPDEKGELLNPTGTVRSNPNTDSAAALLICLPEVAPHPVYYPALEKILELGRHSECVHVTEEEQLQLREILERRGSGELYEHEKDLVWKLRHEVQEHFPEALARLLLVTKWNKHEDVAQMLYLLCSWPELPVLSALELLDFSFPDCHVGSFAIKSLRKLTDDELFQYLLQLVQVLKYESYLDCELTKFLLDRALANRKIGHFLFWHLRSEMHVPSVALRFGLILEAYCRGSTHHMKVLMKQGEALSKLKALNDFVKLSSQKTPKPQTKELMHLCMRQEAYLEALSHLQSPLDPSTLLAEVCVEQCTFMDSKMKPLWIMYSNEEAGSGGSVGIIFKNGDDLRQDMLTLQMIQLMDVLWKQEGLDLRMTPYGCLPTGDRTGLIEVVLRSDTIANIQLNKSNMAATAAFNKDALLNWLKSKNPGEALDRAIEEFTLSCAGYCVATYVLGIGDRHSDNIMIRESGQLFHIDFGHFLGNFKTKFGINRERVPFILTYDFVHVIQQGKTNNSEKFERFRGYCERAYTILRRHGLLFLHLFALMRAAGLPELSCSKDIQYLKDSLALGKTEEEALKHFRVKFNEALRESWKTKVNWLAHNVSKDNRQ

The nature of data set [17]: Oral bioavailability in Sprague-Dawley rat at 2 mg/kg. The format is ADME, organism-based. The conditions noted are these: in vivo.
Data set [18] deals with Rattus norvegicus. As to the kind of experiment: AUC in Sprague-Dawley rat at 1 mg/kg, iv. The format is ADME, organism-based, Plasma. Details: dose 1 mg/kg, route intravenous. The settings on record: in vivo.
For data set [19], the target named is Serine/threonine-protein kinase mTOR (Rattus norvegicus) (UniProt P42346). As to the kind of experiment: Inhibition of HGF induced mTOR activation in rat liver assessed as inhibition of S6RP phosphorylation at 100 mg/kg, ip 6 hrs prior to HGF stimulation by MSD analysis. Details: dose 100 mg/kg. The data set is classed as organism-based.
The test system of data set [20] is Rattus norvegicus. Put plainly: AUC in rat at 2 mg/kg, po. The data set is classed as ADME, organism-based, Plasma. Details: dose 2 mg/kg, route oral. The settings on record: in vivo.

In brackets after ≈: the same amount, converted by molar mass.

A word on the solubility: it is the dissolved amount per volume that the medium holds. The term IC50 denotes the concentration needed to halve the response being measured. A word on the inhibition: it is the relative decrease from the control value, in per cent. For orientation: half-life means the time in which the quantity being followed falls by half. The term bioavailability denotes dose-corrected exposure relative to a reference, in per cent.

Chain of Phosphatidylinositol 4,5-bisphosphate 3-kinase catalytic subunit beta isoform (P42338 whole entry, canonical isoform): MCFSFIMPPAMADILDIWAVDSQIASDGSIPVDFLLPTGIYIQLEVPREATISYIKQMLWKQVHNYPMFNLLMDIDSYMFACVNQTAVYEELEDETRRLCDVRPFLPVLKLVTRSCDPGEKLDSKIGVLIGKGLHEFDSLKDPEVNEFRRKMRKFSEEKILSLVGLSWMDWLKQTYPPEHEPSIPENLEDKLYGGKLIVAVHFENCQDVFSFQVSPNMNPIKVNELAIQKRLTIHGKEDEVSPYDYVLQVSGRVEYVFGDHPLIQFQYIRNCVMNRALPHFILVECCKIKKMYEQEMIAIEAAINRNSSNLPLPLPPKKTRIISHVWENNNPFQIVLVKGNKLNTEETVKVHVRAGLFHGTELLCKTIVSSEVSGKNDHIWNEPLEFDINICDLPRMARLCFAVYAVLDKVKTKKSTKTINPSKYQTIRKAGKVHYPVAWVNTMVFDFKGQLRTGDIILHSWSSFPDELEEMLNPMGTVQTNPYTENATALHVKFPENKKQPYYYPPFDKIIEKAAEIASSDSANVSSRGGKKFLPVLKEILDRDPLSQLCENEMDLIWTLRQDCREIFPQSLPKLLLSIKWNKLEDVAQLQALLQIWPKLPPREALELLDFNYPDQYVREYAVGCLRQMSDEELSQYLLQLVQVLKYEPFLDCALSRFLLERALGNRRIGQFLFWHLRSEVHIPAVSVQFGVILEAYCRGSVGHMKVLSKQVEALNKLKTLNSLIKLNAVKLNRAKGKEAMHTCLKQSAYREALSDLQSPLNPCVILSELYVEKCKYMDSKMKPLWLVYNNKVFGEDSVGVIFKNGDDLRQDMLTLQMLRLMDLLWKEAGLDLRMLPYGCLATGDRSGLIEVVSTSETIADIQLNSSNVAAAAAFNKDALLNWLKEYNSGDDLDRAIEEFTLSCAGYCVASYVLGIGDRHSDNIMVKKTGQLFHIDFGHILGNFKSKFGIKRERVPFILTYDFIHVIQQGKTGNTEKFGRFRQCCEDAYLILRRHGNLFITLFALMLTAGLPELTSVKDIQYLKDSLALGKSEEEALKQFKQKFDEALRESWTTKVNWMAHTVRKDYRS
Chain of Phosphatidylinositol 4,5-bisphosphate 3-kinase catalytic subunit gamma isoform (P48736 whole entry, canonical isoform): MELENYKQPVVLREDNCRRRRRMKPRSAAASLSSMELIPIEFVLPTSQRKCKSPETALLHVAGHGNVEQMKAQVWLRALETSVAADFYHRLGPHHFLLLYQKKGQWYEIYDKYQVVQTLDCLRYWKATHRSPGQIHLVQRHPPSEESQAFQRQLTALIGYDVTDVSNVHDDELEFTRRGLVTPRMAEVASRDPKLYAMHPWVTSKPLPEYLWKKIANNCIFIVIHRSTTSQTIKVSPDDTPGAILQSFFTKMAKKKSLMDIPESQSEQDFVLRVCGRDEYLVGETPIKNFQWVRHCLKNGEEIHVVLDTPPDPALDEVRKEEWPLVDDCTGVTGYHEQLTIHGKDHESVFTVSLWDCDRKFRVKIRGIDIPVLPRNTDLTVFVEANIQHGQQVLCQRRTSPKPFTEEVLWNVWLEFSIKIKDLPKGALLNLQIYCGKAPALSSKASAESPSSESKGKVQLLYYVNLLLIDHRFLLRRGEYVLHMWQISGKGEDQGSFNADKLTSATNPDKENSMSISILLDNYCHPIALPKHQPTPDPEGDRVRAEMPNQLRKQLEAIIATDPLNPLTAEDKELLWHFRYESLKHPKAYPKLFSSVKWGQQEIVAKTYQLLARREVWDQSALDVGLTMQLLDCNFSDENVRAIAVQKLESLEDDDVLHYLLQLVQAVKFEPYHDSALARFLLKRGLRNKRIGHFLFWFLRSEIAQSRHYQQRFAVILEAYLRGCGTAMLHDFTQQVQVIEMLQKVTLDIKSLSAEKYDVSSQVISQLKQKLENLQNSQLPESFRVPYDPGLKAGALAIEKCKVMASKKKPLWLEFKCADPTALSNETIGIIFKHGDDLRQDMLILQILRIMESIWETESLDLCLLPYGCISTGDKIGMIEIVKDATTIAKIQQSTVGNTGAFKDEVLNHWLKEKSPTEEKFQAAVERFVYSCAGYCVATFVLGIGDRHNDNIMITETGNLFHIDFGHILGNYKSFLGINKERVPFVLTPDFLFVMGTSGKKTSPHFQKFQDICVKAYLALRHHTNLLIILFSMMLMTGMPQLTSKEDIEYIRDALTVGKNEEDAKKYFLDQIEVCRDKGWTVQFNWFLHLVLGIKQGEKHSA

For `CNc1nc(C)nc(-n2c(Nc3cc[nH]n3)nc3ccccc32)n1`, in data set [1], the solubility was determined as 156 µg/mL (≈ 485 µM). The concentration for half-maximal inhibition (IC50) in data set [2] came to 81 nM; in data set [3], 600 nM; in data set [5] it was 2200 nM; in data set [6], 3200 nM; in data set [7], 4500 nM; in [11] it was 100 nM. The compound also returned an IC50 in data set [16] of 890 nM. In addition, the AUC in data set [4] was 2.03 µM·h; in [18], 3.6 µM; in [20], 1490 nM. The inhibition was 83% in data set [8], “Dose-dependent effect” in data set [9] and 78% in data set [19]. Moreover, in [10], the fraction unbound is 0.008. The clearance in [12] is 15.5 mL/min/kg. Besides, the Vd in data set [13] was determined as 0.76 L/kg. Besides, the Activity in data set [14] was 71%. For the same compound, the half-life in [15] is 33.6 min. Besides, the bioavailability in data set [17] was 20.7%.

The values are drawn from ChEMBL document CHEMBL1759974, “Discovery of triazine-benzimidazoles as selective inhibitors of mTOR” (Bioorg Med Chem Lett, 2011).
